{
  "source": "patent US10399981B2",
  "about": "“Crystal form A of 7-(cyclopropylmethyl)-1-(((cis )-4-hydroxy-4-methylcyclohexyl)methyl)-3-methyl-1H-purine-2,6-(3H,7H)-dione for treating liver diseases” (GUANGDONG RAYNOVENT BIOTECH CO., LTD., priority 2015, dated 2019)",
  "key": {"[1]": {"test_system": "LPS-induced TNF-α", "assay": "In vitro influence of compound on LPS-induced TNF-α in blood (ELISA)", "format": "cell-based, Sprague Dawley rats", "conditions": "rat blood, compound 100 uM, 5 h", "method": "Experimental objective: to detect the influence of compound on LPS-induced TNF-α in blood of […] in vitro, and to evaluate inhibiting effects of the compound on LPS-induced TNF-α in blood of […].\nSprague Dawley rats (male, 210-260 g, 8-10 weeks old, Shanghai SLAC)\nRat TNF-alpha Quantikine ELISA Kit (R&D, #SRTA00)\nThe solution of compound to-be-detected at a concentration of 1 mM was prepared, and 40 μL (final concentration of the compound: 100 uM) was respectively added to a 48-well cell culture plate. After rats were anesthetized with isoflurane, blood samples were collected from their hearts (heparin anticoagulation). The blood was added to the to-be-detected compound present in the 48-well plate with 320 μL/well. The 48-well plate was incubated in a cell incubator for 30 min. Then 40 μL of LPS solution (100 ug/ml) was added, and fully mixed. The plate was further incubated in the incubator. 5 h later, the 48-well plate was taken out. The blood samples were transferred to 1.5 ml centrifuge tubes, and centrifuged in a centrifuge (4,500 rpm, 4° C., 5 minutes). The supernatant was separated to obtain blood plasma, which was subpackaged, quickly frozen, and kept in a refrigerator at −80° C. On the next day, the TNF-α levels in blood plasma samples were detected using an R&D ELISA kit."}, "[2]": {"molecular_target": "T1, recombinant full-length human PDE2A protein (Homo sapiens, UniProt O00408)", "T1 construct": "A recombinant full-length human PDE2A protein; GST (N); made in house; host or cells: Sf9 insect cells (baculovirus)", "T1 sequence (O00408 whole entry)": "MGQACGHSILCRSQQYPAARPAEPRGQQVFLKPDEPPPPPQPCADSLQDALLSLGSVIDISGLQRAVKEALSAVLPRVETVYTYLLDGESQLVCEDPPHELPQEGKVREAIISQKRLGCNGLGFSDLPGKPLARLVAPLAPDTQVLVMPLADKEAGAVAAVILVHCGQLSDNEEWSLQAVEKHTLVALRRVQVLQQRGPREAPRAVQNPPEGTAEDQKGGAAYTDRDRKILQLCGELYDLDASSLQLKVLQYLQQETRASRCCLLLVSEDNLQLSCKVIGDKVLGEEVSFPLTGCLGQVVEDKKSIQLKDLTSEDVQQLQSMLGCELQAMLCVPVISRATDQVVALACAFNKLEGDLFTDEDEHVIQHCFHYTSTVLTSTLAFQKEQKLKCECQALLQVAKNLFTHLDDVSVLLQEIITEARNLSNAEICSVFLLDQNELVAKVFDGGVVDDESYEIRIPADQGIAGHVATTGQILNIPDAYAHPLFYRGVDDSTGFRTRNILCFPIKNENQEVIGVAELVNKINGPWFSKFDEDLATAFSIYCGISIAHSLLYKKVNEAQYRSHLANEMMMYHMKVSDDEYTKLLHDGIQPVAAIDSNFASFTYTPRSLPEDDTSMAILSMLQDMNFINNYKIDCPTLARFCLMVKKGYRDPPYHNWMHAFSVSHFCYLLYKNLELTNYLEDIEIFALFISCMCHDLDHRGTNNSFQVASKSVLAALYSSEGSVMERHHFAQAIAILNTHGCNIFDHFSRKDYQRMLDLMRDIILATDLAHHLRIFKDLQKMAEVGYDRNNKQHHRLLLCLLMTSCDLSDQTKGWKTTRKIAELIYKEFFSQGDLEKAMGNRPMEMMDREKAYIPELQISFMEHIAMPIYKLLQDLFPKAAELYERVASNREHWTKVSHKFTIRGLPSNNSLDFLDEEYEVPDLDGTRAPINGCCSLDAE", "assay": "In vitro evaluation on inhibition activities of PDE2 phosphodiesterase (fluorescence polarization, Transcreener AMP2/GMP2)", "format": "biochemical", "conditions": "substrate 1 μM cGMP", "method": "Experimental objective: the concentrations of AMP/GMP generated in the reaction system was detected by detecting a substituted AlexaFluor 633 fluorochrome on AMP/GMP antibodies through fluorescence polarization analysis, and IC50 of PDE2 phosphodiesterase against compound to be detected was calculated.\nBuffer solution for determination: 10 mM Tris-HCl, pH 7.5, 5 mM MgCl2, 0.01% Brij 35, 1 mM DTT, and 1% DMSO.\nEnzyme: A recombinant full-length human PDE2A protein was expressed by baculovirus in Sf9 insect cells using an N-terminal GST tag\nTranscreener® AMP^2/GMP^2 antibody, AMP2/GMP2 AlexaFluor 633 fluorochrome\nAn enzyme solution was prepared from a freshly prepared buffer solution, and then added to a reaction cavity, a DMSO solution of compound to-be-detected was added through an Echo550 contactless nanoliter pipetting system, and then the resulting solution was preincubated for 10 min at room temperature. A substrate (1 μM cGMP) was added to initiate reaction, which was kept at room temperature for 1 h. […] Fluorescence polarization was detected using Ex/Em 620/688.\nFluorescence polarization intensity was converted to nM concentration through AMP/GMP standard curves, then relative enzymatic activity inhibition was calculated compared with DMSO blank control, and IC50 and curve thereof was calculated using Prism software package (GraphPad Software, San Diego Calif., USA)."}, "[3]": {"assay": "Evaluation on pharmacokinetics of compound in SD rats", "format": "in vivo", "conditions": "male, Sprague-Dawley, rat, plasma; for clearance / AUC / half-life: single intravenous injection and oral administration; for clearance: read-out: Clearance rate; for AUC: read-out: Concentration integral AUC; for half-life: read-out: Half life T1/2 (converted)", "method": "Experimental objective: To test the pharmacokinetics of a compound in SD rats\nExperimental materials: Sprague Dawley rats (male, 200-300 g, 7-9 weeks old, Shanghai SLAC)\nPharmacokinetic characteristics of rodents after intravenous injection and oral administration of the compound were tested using a standard scheme. In the experiment, a candidate compound was prepared into a clear solution, which was administrated to rats by single intravenous injection and oral administration. The solvent for intravenous injection and oral administration is water solution or normal saline solution of hydroxypropyl 3 cyclodextrin at a certain proportion. A whole blood sample was collected within 24 hours, and 3000 g of the sample was centrifuged for 15 minutes. The supernatant was separated to obtain blood plasma samples, to which 4 times volume of an acetonitrile solution containing an internal standard substance was added to precipitate protein. After centrifuging, the supernatant was collected, equivalent volume of water was added, the resulting solution was recentrifuged, and the supernatant was collected for sample injection. The blood concentration was quantitatively analyzed by LC-MS/MS, and the pharmacokinetic parameters were calculated, such as peak concentration, time to peak, clearance rate, half life, area under the curve and bioavailability."}, "[4]": {"assay": "Stability test of crystal form A solid (accelerated, 40° C./75% humidity, open)", "format": "physicochemical", "method": "A crystal form A was put in an open container at a constant temperature and humidity for accelerated test respectively at 40° C./75% humidity (open). Samples were collected in 1st, 2nd and 3rd months and tested, and the test results were compared with the initial test results on 0th day."}, "[5]": {"assay": "Solubility of crystal form A in different solvents", "format": "physicochemical", "conditions": "thermodynamic from solid, room temperature", "method": "About 2 mg of crystal form A was weighed put in a 1.5 mL liquid phase vial, to which the following solvents were respectively added by pipettes by stages to dissolve the crystal form A while manually vibrating."}, "[6]": {"conditions": "40° C./75% humidity (open), 1 month"}, "[7]": {"conditions": "40° C./75% humidity (open), 2 months"}, "[8]": {"conditions": "40° C./75% humidity (open), 3 months"}},
  "data": [
    {"smiles": "Cn1c(=O)n(C[C@H]2CC[C@@](C)(O)CC2)c(=O)c2c1ncn2CC1CC1", "note": "[Compound (I), 7-(cyclopropylmethyl)-1-(((cis)-4-hydroxy-4-methylcyclohexyl)methyl)-3-methyl-1H-purine-2,6-(3H, 7H)-dione]", "values": [
      {"measurement": "TNF-α Inhibition Ratio", "setting": "[1]", "result": "++ (80% ≤ “++” < 100%)"},
      {"measurement": "IC50", "setting": "[2]", "result": "1 to 10", "unit": "µM"},
      {"measurement": "bioavailability", "setting": "[3]; oral administration, read-out: Bioavailability F", "result": 47.9, "unit": "%"},
      {"measurement": "clearance", "setting": "[3]", "result": 54.4, "unit": "mL/min/kg"},
      {"measurement": "AUC", "setting": "[3]", "result": 4.39, "unit": "µM·h"},
      {"measurement": "half-life", "setting": "[3]", "result": 47.6, "unit": "min"}
    ]},
    {"smiles": "Cn1c(=O)n(C[C@H]2CC[C@@](C)(O)CC2)c(=O)c2c1ncn2CC1CC1", "note": "[Crystal Form A, 7-(cyclopropylmethyl)-1-(((cis)-4-hydroxy-4-methylcyclohexyl)methyl)-3-methyl-1H-purine-2,6-(3H, 7H)-dione]", "values": [
      {"measurement": "Appearance", "setting": "[4]; [6]", "result": "White powder"},
      {"measurement": "Content", "setting": "[4]; [6]", "result": 101.4, "unit": "%"},
      {"measurement": "Total Impurities", "setting": "[4]; [6]", "result": 0.31, "unit": "%"},
      {"measurement": "Appearance", "setting": "[4]; [7]", "result": "White powder"},
      {"measurement": "Content", "setting": "[4]; [7]", "result": 98.8, "unit": "%"},
      {"measurement": "Total Impurities", "setting": "[4]; [7]", "result": 0.34, "unit": "%"},
      {"measurement": "Appearance", "setting": "[4]; [8]", "result": "White powder"},
      {"measurement": "Content", "setting": "[4]; [8]", "result": 101.8, "unit": "%"},
      {"measurement": "Total Impurities", "setting": "[4]; [8]", "result": 0.32, "unit": "%"},
      {"measurement": "Appearance", "setting": "[4]; Initial, 0 month", "result": "White powder"},
      {"measurement": "Content", "setting": "[4]; Initial, 0 month", "result": 101.6, "unit": "%"},
      {"measurement": "Total Impurities", "setting": "[4]; Initial, 0 month", "result": 0.33, "unit": "%"},
      {"measurement": "solubility", "setting": "[5]; aqueous with cosolvent or surfactant or cyclodextrin, Acetone-water (1:2)", "result": "~1", "unit": "mg/mL"},
      {"measurement": "solubility", "setting": "[5]; aqueous with cosolvent or surfactant or cyclodextrin, Acetonitrile-water (1:1)", "result": "~22.2", "unit": "mg/mL"},
      {"measurement": "solubility", "setting": "[5]; aqueous with cosolvent or surfactant or cyclodextrin, Ethanol-water (1:1)", "result": "~16.3", "unit": "mg/mL"},
      {"measurement": "solubility", "setting": "[5]; aqueous with cosolvent or surfactant or cyclodextrin, Ethanol-water (3:1)", "result": "~24.5", "unit": "mg/mL"},
      {"measurement": "solubility", "setting": "[5]; aqueous with cosolvent or surfactant or cyclodextrin, Isopropanol-water (1:1)", "result": "~17.3", "unit": "mg/mL"},
      {"measurement": "solubility", "setting": "[5]; aqueous with cosolvent or surfactant or cyclodextrin, Methanol-water (1:1)", "result": "~7.8", "unit": "mg/mL"},
      {"measurement": "solubility", "setting": "[5]; aqueous with cosolvent or surfactant or cyclodextrin, Methanol-water (3:1)", "result": "~19", "unit": "mg/mL"},
      {"measurement": "solubility", "setting": "[5]; organic solvent or mixture, 2-methyltetrahydrofuran", "result": "~24.2", "unit": "mg/mL"},
      {"measurement": "solubility", "setting": "[5]; organic solvent or mixture, Acetone", "result": "~17.2", "unit": "mg/mL"},
      {"measurement": "solubility", "setting": "[5]; organic solvent or mixture, Acetonitrile", "result": "~13", "unit": "mg/mL"},
      {"measurement": "solubility", "setting": "[5]; organic solvent or mixture, Butanone", "result": "~37.2", "unit": "mg/mL"},
      {"measurement": "solubility", "setting": "[5]; organic solvent or mixture, Cyclohexane", "result": "< 1", "unit": "mg/mL"},
      {"measurement": "solubility", "setting": "[5]; organic solvent or mixture, Dioxane", "result": "> 57", "unit": "mg/mL"},
      {"measurement": "solubility", "setting": "[5]; organic solvent or mixture, Ethanol", "result": "~11.2", "unit": "mg/mL"},
      {"measurement": "solubility", "setting": "[5]; organic solvent or mixture, Ethyl acetate", "result": "~15.2", "unit": "mg/mL"},
      {"measurement": "solubility", "setting": "[5]; organic solvent or mixture, Isopropanol", "result": "~10.1", "unit": "mg/mL"},
      {"measurement": "solubility", "setting": "[5]; organic solvent or mixture, Isopropyl acetate", "result": "~12", "unit": "mg/mL"},
      {"measurement": "solubility", "setting": "[5]; organic solvent or mixture, Methanol", "result": "~28.7", "unit": "mg/mL"},
      {"measurement": "solubility", "setting": "[5]; organic solvent or mixture, Methyl isobutyl ketone", "result": "~10.9", "unit": "mg/mL"},
      {"measurement": "solubility", "setting": "[5]; organic solvent or mixture, Methyl tertiary butyl ether", "result": "~2.6", "unit": "mg/mL"},
      {"measurement": "solubility", "setting": "[5]; organic solvent or mixture, Methylbenzene", "result": "< 1", "unit": "mg/mL"},
      {"measurement": "solubility", "setting": "[5]; organic solvent or mixture, Tetrahydrofuran", "result": "> 67", "unit": "mg/mL"},
      {"measurement": "solubility", "setting": "[5]; organic solvent or mixture, n-butanol", "result": "~20.5", "unit": "mg/mL"},
      {"measurement": "solubility", "setting": "[5]; organic solvent or mixture, n-heptane", "result": "< 1", "unit": "mg/mL"},
      {"measurement": "solubility", "setting": "[5]; Water", "result": "< 1", "unit": "mg/mL"}
    ]},
    {"smiles": "CC(=O)CCCCn1c(=O)c2c(ncn2C)n(C)c1=O", "note": "[Pentoxifylline, reference compound]", "values": [
      {"measurement": "clearance", "setting": "[3]", "result": 74.1, "unit": "mL/min/kg"},
      {"measurement": "AUC", "setting": "[3]", "result": 6.62, "unit": "µM·h"},
      {"measurement": "half-life", "setting": "[3]", "result": 11.5, "unit": "min"}
    ]}
  ]
}
